Test results reported in PubChem BioAssay (NCI).
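These data come from cells grown in 96-well plates and exposed to compound for 48 hours at five concentrations. Definition used: TGI = concentration required for complete inhibition of growth.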

What was measured:
Assay in all cases: NCI tumour cell line growth inhibition, 48 h
UACC-62 melanoma = tested on: UACC-62 melanoma
ACHN renal = tested on: ACHN renal
HS 578T breast = tested on: HS 578T breast
HOP-92 NSCLC = tested on: HOP-92 NSCLC
OVCAR-8 ovarian = tested on: OVCAR-8 ovarian
SK-MEL-28 melanoma = tested on: SK-MEL-28 melanoma
A498 renal = tested on: A498 renal
SR leukemia = tested on: SR leukemia
SK-MEL-5 melanoma = tested on: SK-MEL-5 melanoma
EKVX NSCLC = tested on: EKVX NSCLC
MDA-MB-435 = tested on: MDA-MB-435
COLO 205 colon = tested on: COLO 205 colon
MDA-N = tested on: MDA-N
MDA-MB-231 breast = tested on: MDA-MB-231 breast
BT-549 breast = tested on: BT-549 breast
HL-60(TB) leukemia = tested on: HL-60(TB) leukemia
NCI-H23 lung = tested on: NCI-H23 lung
NCI-H522 lung = tested on: NCI-H522 lung
HCC-2998 colon = tested on: HCC-2998 colon
M14 melanoma = tested on: M14 melanoma
NCI-H460 lung = tested on: NCI-H460 lung
NCI/ADR-RES ovarian = tested on: NCI/ADR-RES ovarian
SNB-75 CNS = tested on: SNB-75 CNS
IGROV1 ovarian = tested on: IGROV1 ovarian
SK-MEL-2 melanoma = tested on: SK-MEL-2 melanoma
DU-145 prostate = tested on: DU-145 prostate
UACC-257 melanoma = tested on: UACC-257 melanoma
RPMI-8226 leukemia = tested on: RPMI-8226 leukemia
OVCAR-5 ovarian = tested on: OVCAR-5 ovarian
SNB-19 CNS = tested on: SNB-19 CNS
MALME-3M melanoma = tested on: MALME-3M melanoma
SF-295 CNS = tested on: SF-295 CNS
OVCAR-3 ovarian = tested on: OVCAR-3 ovarian
786-0 renal = tested on: 786-0 renal
SW-620 colon = tested on: SW-620 colon
RXF 393 renal = tested on: RXF 393 renal
KM12 colon = tested on: KM12 colon
HCT-15 colon = tested on: HCT-15 colon
HT29 colon = tested on: HT29 colon
LOX IMVI melanoma = tested on: LOX IMVI melanoma
MOLT-4 leukemia = tested on: MOLT-4 leukemia
NCI-H226 lung = tested on: NCI-H226 lung
PC-3 prostate = tested on: PC-3 prostate
SK-OV-3 ovarian = tested on: SK-OV-3 ovarian
OVCAR-4 ovarian = tested on: OVCAR-4 ovarian
MCF7 breast = tested on: MCF7 breast
A549 NSCLC = tested on: A549 NSCLC
CAKI-1 renal = tested on: CAKI-1 renal
HOP-62 NSCLC = tested on: HOP-62 NSCLC
HCT-116 colon = tested on: HCT-116 colon
U251 CNS = tested on: U251 CNS
K-562 leukemia = tested on: K-562 leukemia
T-47D breast = tested on: T-47D breast
UO-31 renal = tested on: UO-31 renal
CCRF-CEM leukemia = tested on: CCRF-CEM leukemia
SF-268 CNS = tested on: SF-268 CNS
SN12C renal = tested on: SN12C renal
SF-539 CNS = tested on: SF-539 CNS
TK-10 renal = tested on: TK-10 renal

Measured: TGI

Nc1nc(NCCCO)cc(=O)[nH]1
> 100 µM: UACC-62 melanoma | ACHN renal | HS 578T breast | HOP-92 NSCLC | OVCAR-8 ovarian | SK-MEL-28 melanoma | A498 renal | SR leukemia | SK-MEL-5 melanoma | EKVX NSCLC | MDA-MB-435 | COLO 205 colon | MDA-N | MDA-MB-231 breast | BT-549 breast | HL-60(TB) leukemia | NCI-H23 lung | NCI-H522 lung | HCC-2998 colon | M14 melanoma | NCI-H460 lung | NCI/ADR-RES ovarian | SNB-75 CNS | IGROV1 ovarian | SK-MEL-2 melanoma | DU-145 prostate | UACC-257 melanoma | RPMI-8226 leukemia | OVCAR-5 ovarian | SNB-19 CNS | MALME-3M melanoma | SF-295 CNS | OVCAR-3 ovarian | 786-0 renal | SW-620 colon | RXF 393 renal | KM12 colon | HCT-15 colon | HT29 colon | LOX IMVI melanoma | MOLT-4 leukemia | NCI-H226 lung | PC-3 prostate | SK-OV-3 ovarian | OVCAR-4 ovarian | MCF7 breast | A549 NSCLC | CAKI-1 renal | HOP-62 NSCLC | HCT-116 colon | U251 CNS | K-562 leukemia | T-47D breast | UO-31 renal | CCRF-CEM leukemia | SF-268 CNS | SN12C renal

COc1cccc(C2SC(N)=Nc3c2c(C)nn3C(=O)Cc2ccccc2)c1 (stereo not drawn)
> 100 µM: UACC-62 melanoma | ACHN renal | SF-539 CNS | HS 578T breast | OVCAR-8 ovarian | SK-MEL-28 melanoma | A498 renal | SR leukemia | SK-MEL-5 melanoma | EKVX NSCLC | MDA-MB-435 | COLO 205 colon | MDA-N | MDA-MB-231 breast | BT-549 breast | HL-60(TB) leukemia | NCI-H23 lung | NCI-H522 lung | HCC-2998 colon | M14 melanoma | NCI-H460 lung | SNB-75 CNS | IGROV1 ovarian | DU-145 prostate | UACC-257 melanoma | RPMI-8226 leukemia | SNB-19 CNS | MALME-3M melanoma | SF-295 CNS | 786-0 renal | SW-620 colon | KM12 colon | HCT-15 colon | HT29 colon | LOX IMVI melanoma | MOLT-4 leukemia | NCI-H226 lung | PC-3 prostate | SK-OV-3 ovarian | MCF7 breast | A549 NSCLC | CAKI-1 renal | HOP-62 NSCLC | HCT-116 colon | K-562 leukemia | T-47D breast | TK-10 renal | UO-31 renal | CCRF-CEM leukemia | SF-268 CNS | SN12C renal
